One experiment concerns HepG2 line. More on the design: method as in PMID 26151733. The following applies: HepG2, 22.11 μg/mL, same phase = G0/G1; cited from earlier work.
In experiment [1] the test system is HepG2 cells. Description: Muse Annexin V & Dead Cell apoptosis assay. The class given is cell-based, human. Particulars: HepG2, staurosporine 1 μg/mL (positive control). How it is done:
(§1) A total of 1.5 × 10^5 cells were seeded per well in 24-well plates for each cell line (quadruplicates for three different populations of each cell line). […] Negative control populations were incubated only with the appropriate culture medium. The samples were analyzed in the Muse^TM Cell Analyzer (Merck-Millipore®, Burlington, MA, USA). Phosphatidylserine (PS) is a phospholipid that is usually found in the inner half of the cytoplasmic membrane, but is outsourced when loss of integrity occurs in the apoptosis process. The method is based on the recognition and binding to the PS exposed by annexin V protein, labeled with a fluorescent substance to detect the interaction and quantify it. We used the Muse^TM Annexin V & Dead Cell kit purchased from Millipore (Billerica, MA, USA), which provides the percentage of viable cells, apoptotic and affected by necrosis.

A further experiment deals with WRL68 cells. Nature of the experiment: Muse Annexin V & Dead Cell apoptosis assay. In kind it is cell-based, human. The following applies: WRL68, staurosporine 1 μg/mL (positive control). How it is done: as §1
Experiment [2] relates to HepG2 cells. More on the design: method as in PMID 26370984. Particulars: HepG2, 72 h; cited from earlier work.

Structures are written as SMILES. In brackets after ≈: the same amount, converted by molar mass.

For orientation: IC50 means the midpoint of a concentration-inhibition curve.

For `CC1(C)CC[C@]2(C(=O)O)CC[C@]3(C)C(=CC[C@@H]4[C@@]5(C)CC[C@H](O)C(C)(C)[C@@H]5CC[C@]43C)[C@@H]2C1` [oleanolic acid], the cell cycle arrest entry in the experiment with HepG2 line was “arrest in the same phase of the cycle”.
For `CN[C@@H]1C[C@H]2O[C@@](C)([C@@H]1OC)n1c3ccccc3c3c4c(c5c6ccccc6n2c5c31)C(=O)NC4` [staurosporine, reference compound], the “change in apoptotic cells vs control” value in the experiment on HepG2 cells [1] was “did not lead to an increase in apoptotic cells”. In addition, in the experiment with WRL68 cells, the “change in number of apoptotic and necrotic cells vs control” value is recorded as “equally significant increase”; the “change in number of viable cells vs control” value is reported as “significant decrease”.
For the compound `CC1(C)CC[C@]2(C(=O)O)CC[C@]3(C)C(=CC[C@@H]4[C@@]5(C)C[C@@H](O)[C@H](O)C(C)(C)[C@@H]5CC[C@]43C)[C@@H]2C1` [maslinic acid], the 50% inhibitory concentration (IC50) with HepG2 cells [2] is 47 µg/mL (≈ 99.4 µM).

Values taken from PMC7571068, “Antiproliferative and Pro-Apoptotic Effect of Uvaol in Human Hepatocarcinoma HepG2 Cells by Affecting G0/G1 Cell Cycle Arrest, ROS Production and AKT/PI3K Signaling Pathway” (Molecules, 2020).
